Experimental data taken from PMC9822280, “A Rapid and Sensitive Liquid Chromatography-Tandem Mass Spectrometry Bioanalytical Method for the Quantification of Encorafenib and Binimetinib as a First-Line Treatment for Advanced (Unresectable or Metastatic) Melanoma—Application to a Pharmacokinetic Study” (Molecules, 2022).
Read-outs that look alike come from different tables or passages of the source.

Tests used:
[1] = Stability of binimetinib and encorafenib in rat plasma under different storage conditions; type: in vitro ADME; details: for recovery at 24 h, 2400 ng/mL / recovery at 2400 ng/mL / recovery at 30 days, 2400 ng/mL: HQC 2400 ng/mL; for recovery at 2400 ng/mL / recovery at 1.5 ng/mL / recovery at 1800 ng/mL: n 3, read-out: Freeze and Thaw Stability at −80 °C (3 Cycles), Recovery (%); for recovery at 30 days, 2400 ng/mL / recovery at 30 days, 1.5 ng/mL / recovery at 30 days, 1800 ng/mL: n 3, read-out: Long Term Stability at −80 °C (30 Days), Recovery (%); for recovery at 24 h, 1.5 ng/mL / recovery at 1.5 ng/mL / recovery at 30 days, 1.5 ng/mL: LQC 1.5 ng/mL; for recovery at 24 h, 1800 ng/mL / recovery at 1800 ng/mL / recovery at 30 days, 1800 ng/mL: MQC 1800 ng/mL
Method: An important process of bioanalytical method validation is stability assessment. Stability of BNB and ENF was studied throughout the analysis of three QC samples (LQC, MQC and HQC) of each drug after the application of the different storage conditions. The different parameters investigated include short-term stability at room temperature for 24 h, autosampler stability at 10 °C for 24 h, three freeze and thaw cycles after storing at −80 °C, and long-term stability at −80 °C for 30 days. The results of stability experiments were satisfactory and complied with the accuracy criteria of ±15% of its theoretical concentration.
The stability of ENF and BNB was assessed after exposing the QC samples at LQC, MQC, and HQC to different storage conditions (temperature and time). The applied conditions include short-term stability at room temperature for 24 h in an autosampler for 24 h at 10 °C. Long-term stability was assessed after storing QCs for 30 days at −80 °C. Freeze and thaw stability were evaluated after three freezing and thawing cycles and compared with freshly prepared QCs. Moreover, the stock solution stability for ENF and BNB and IS was studied at a temperature of 5 ± 2 °C. All sample accuracies should be ± 15% to be considered stable.

[2] = Pharmacokinetic study in rats after oral administration of binimetinib and encorafenib; type: in vivo; details: male, Wistar, rat plasma, oral 3.8 mg/kg binimetinib and 20 mg/kg encorafenib, fasting; for AUC(0-t) / AUC(0-inf) / Cmax / MRT inf / half-life: mean ± SD; for AUC(0-t): read-out: AUC0-t (area under the curve up to the last sampling time); for AUC(0-inf): read-out: AUC0-∞ (area under the curve extrapolated to infinity); for Cmax: read-out: Cmax (maximum plasma concentration); for MRT inf: read-out: MRT0-∞ (mean residence time); for half-life: read-out: t1/2kel (half-life in elimination phase) (converted); for Tmax: read-out: Tmax (time taken to reach the maximum plasma concentration)
Method: The newly developed and validated LC-MS/MS assay was effectively applied to evaluate BNB and ENF in rat plasma for a pharmacokinetic study after oral administration of 3.8 mg/kg BNB and 20 mg/kg ENF for four healthy male Wistar rats under fasting conditions. […] The values acquired in the current investigation for BNB for t1/2kel and Cl/F parameters are consistent with in vivo BNB PK studies. Furthermore, the Tmax parameter for BNB is similar to that represented in a recently published paper.
Four healthy male Wistar rats (220–250 g) were brought from the Animal Care Center of King Saud University (Saudia Arabia). All experimental procedures were reviewed in accordance with the guidelines of King Saud University Institutional Research Ethics Committee (REC) with an ethics reference number (SE-19–109). Rats were acclimatized for 7 days to laboratory environments before the experiment was directed. Diet was prohibited for 12 h before the experiment, but the water was freely available. The dose of drugs was determined according to the body surface area employing the below-mentioned formula [22]. Human dose (mg/kg) = Animal dose (mg/kg) × animal Km/Human Km
Km is a factor used in dose conversion. It is a ratio of average body weight (kg) and body surface area (m^2). Km values for the rat and human are 6 and 37, respectively. Human dose for BNB and ENF was considered as 90 and 450 mg, respectively.
Blood samples (300 μL) were collected into heparinized 1.5 mL polythene tubes containing ethylenediamine tetraacetic acid dipotassium (EDTA K2) (anticoagulant) before drug administration and at 0.15, 0.5, 1, 2, 4, 6, 8, 12, 18, and 24 h after oral administration of binimetinib (3.8 mg/kg) and encorafenib (20 mg/kg). In the current study, both drugs were dissolved in 1% DMSO/saline. The samples were directly centrifuged at 3500 rpm for 10 min at 4 °C. The plasma obtained was stored at −80 °C until analysis. The same method of extraction described under calibration standards preparation (2.4.) was used for sample preparation. The PK parameters of BNB and ENF such as Cmax, Tmax, t1/2kel, AUC0–24, and AUC0–∞ were calculated by fitting the data to a non-compartmental analysis (NCA) model with PK Solver Add-In software.

[3] = n 3, read-out: Autosampler Stability at 10 °C (24 h), Recovery (%)
[4] = n 3, read-out: Short Term Stability at Room Temperature (24 h), Recovery (%)

recovery at 24 h, 2400 ng/mL [1, 3] [%] | recovery at 2400 ng/mL [1] [%] | recovery at 30 days, 2400 ng/mL [1] [%] | recovery at 24 h, 2400 ng/mL [1, 4] [%] | recovery at 24 h, 1.5 ng/mL [1, 3] [%] | recovery at 1.5 ng/mL [1] [%] | recovery at 30 days, 1.5 ng/mL [1] [%] | recovery at 24 h, 1.5 ng/mL [1, 4] [%] | recovery at 24 h, 1800 ng/mL [1, 3] [%] | recovery at 1800 ng/mL [1] [%] | recovery at 30 days, 1800 ng/mL [1] [%] | recovery at 24 h, 1800 ng/mL [1, 4] [%] | AUC(0-t) [2] [ng·h/mL] | AUC(0-inf) [2] [ng·h/mL] | Cmax [2] [ng/mL] | MRT inf [2] [h] | half-life [2] [h] | Tmax [2] [h] | SMILES
92.4 | 96.5 | 94.6 | 94.5 | 96.6 | 99.5 | 97.5 | 95.2 | 99.8 | 96.8 | 102 | 103 | 30300 ± 3010 | 36500 ± 3920 | 16400 ± 1470 | 3.23 ± 0.4 | 2.48 ± 0.24 | 1 | COC(=O)N[C@@H](C)CNc1nccc(-c2cn(C(C)C)nc2-c2cc(Cl)cc(NS(C)(=O)=O)c2F)n1 [Encorafenib, encorafenib]
95.4 | 95.2 | 94.8 | 93.4 | 97.3 | 104 | 95.5 | 96.2 | 104 | 104 | 104 | 103 | 12400 ± 1860 | 18200 ± 1310 | 3430 ± 460 | 4.5 ± 0.28 | 3.39 ± 0.43 | 1 | Cn1cnc2c(F)c(Nc3ccc(Br)cc3F)c(C(=O)NOCCO)cc21 [Binimetinib, binimetinib]
